From EP4725941A1, “ARYLAMIDE DERIVATIVE HAVING ANTITUMOR ACTIVITY” (priority 2020, dated 2021) come the findings set out here.

Where two headings read alike, the source gives them in different places. A value given as a limit tells only on which side of the number the result lay.

Data set [1] in a line: Human liver microsome stability. The note with it: human liver microsomes, pH 7.4. The data set is classed as in vitro ADME.
In data set [2] the test system is A549. Nature of the data set: Cell proliferation-inhibiting activity (ATP in viable cells, CellTiter-Glo), A549. The data set is classed as cell-based, human. Particulars: read-out: A549 IC50.
For data set [3], the target named is T1, MEK1 (Homo sapiens, UniProt Q02750).
T1 construct: purchased Thermo Fisher Scientific Inc. (MEK1, CRAF); Carna Biosciences, Inc. (ERK2)
T1 sequence (Q02750 whole entry): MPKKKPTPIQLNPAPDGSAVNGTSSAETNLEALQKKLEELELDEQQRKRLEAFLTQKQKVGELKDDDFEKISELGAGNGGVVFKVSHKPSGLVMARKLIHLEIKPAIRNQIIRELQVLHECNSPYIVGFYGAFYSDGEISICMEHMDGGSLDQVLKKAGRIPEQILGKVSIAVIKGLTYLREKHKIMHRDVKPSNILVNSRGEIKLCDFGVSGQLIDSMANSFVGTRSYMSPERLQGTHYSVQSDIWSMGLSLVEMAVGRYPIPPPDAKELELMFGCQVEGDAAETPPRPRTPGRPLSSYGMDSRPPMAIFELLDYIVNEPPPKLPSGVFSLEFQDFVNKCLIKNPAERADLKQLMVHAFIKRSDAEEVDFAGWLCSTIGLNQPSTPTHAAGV
Nature of the data set: MEK1-inhibiting activity, fluorescent polarization method (CRAF/MEK1/ERK2 cascade, IMAP). The data set is classed as biochemical. On the procedure: The MEK1-inhibiting activity of the compounds listed in Table 3 below were evaluated by the fluorescent polarization method as described below.

The target of data set [4] is T2, BRAF (Homo sapiens, UniProt P15056).
T2 construct: purchased Eurofins Genomics KK; (BRAF); Thermo Fisher Scientific Inc. (MEK1)
T2 sequence (P15056 417-766 limits assumed): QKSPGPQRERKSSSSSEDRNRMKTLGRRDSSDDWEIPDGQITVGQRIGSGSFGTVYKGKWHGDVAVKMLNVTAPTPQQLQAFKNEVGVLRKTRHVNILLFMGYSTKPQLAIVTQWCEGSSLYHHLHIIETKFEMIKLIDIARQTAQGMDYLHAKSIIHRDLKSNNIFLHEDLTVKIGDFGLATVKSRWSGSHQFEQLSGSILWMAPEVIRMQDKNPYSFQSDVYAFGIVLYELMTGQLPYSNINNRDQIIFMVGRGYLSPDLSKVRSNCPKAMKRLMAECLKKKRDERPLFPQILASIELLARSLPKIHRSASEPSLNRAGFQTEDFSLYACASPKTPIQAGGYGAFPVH
Nature of the data set: BRAF-inhibiting activity, time-resolved fluorescence-fluorescence resonance energy transfer assay. The format is biochemical. As for the experimental part:
The BRAF-inhibiting activity of the compounds listed in Table 3 below was evaluated by the time-resolved fluorescence-fluorescence resonance energy transfer assay as described below.

Data set [5] deals with Calu-6. Nature of the data set: Cell proliferation-inhibiting activity (ATP in viable cells, CellTiter-Glo), Calu-6. The data set is classed as cell-based, human. The note with it: read-out: Calu-6 IC50.
Data set [6] deals with NCI-H2122. The data set can be described thus: Cell proliferation-inhibiting activity (ATP in viable cells, CellTiter-Glo), NCI-H2122. Particulars: read-out: NCI-H2122 IC50. The data set is classed as cell-based, human.
The mark [7] stands for this setting: A549, 96 h, human lung cancer cells, 4 days.
[8] abbreviates: Calu-6, 96 h, human lung cancer cells, 4 days.
[9] abbreviates: NCI-H2122, 96 h, human lung cancer cells, 4 days.
[10] abbreviates: human lung cancer cells, 4 days.

`CNS(=O)(=O)Nc1nccc(Cc2cc(C(=O)NC3CC3C)c(Nc3ccc(I)cc3F)c(F)c2F)c1F` (mixture of isomers) [Compound B-3, 3,4-Difluoro-2-(2-fluoro-4-iodoanilino)-5-[[3-fluoro-2-(methylsulfamoylamino)pyridin-4-yl]methyl]-N-(2-methylcyclopropyl)benzamide (mixture of 4 isomers)]: the microsomal CLint at 0.99 µM in data set [1] was found to be 22 µL/min/mg. The IC50 in data set [2] (setting [7]) stood at 2 nM; in data set [3] (Table 3, read-out: MEK1 IC50) it was 82 nM; in data set [4] (read-out: BRAF IC50; Table 3) it was 4 nM; in data set [5] (setting [8]) it was 14 nM; in data set [6] (setting [9]), 1 nM.

`CNS(=O)(=O)Nc1nccc(Cc2cc(C(=O)N[C@H]3C[C@H]3C)c(Nc3ccc(I)cc3F)c(F)c2F)c1F` (racemic) [Compound B-4, 3,4-Difluoro-2-(2-fluoro-4-iodoanilino)-5-[[3-fluoro-2-(methylsulfamoylamino)pyridin-4-yl]methyl]-N-[(1S, 2R)-(+/-)-2-methylcyclopropyl]benzamide (racemate)]: in data set [1], the microsomal CLint at 0.99 µM came to 28 µL/min/mg. Further, the IC50 in data set [2] (setting [7]) was 2 nM; in data set [3] it was 19 nM; in data set [4] (Table 3; read-out: BRAF IC50), 5 nM; in data set [5] (setting [8]), 6 nM; in data set [6] (setting [9]) it was 1 nM.

The compound `CNS(=O)(=O)Nc1nccc(Cc2cc(C(=O)N[C@@H]3C[C@H]3C)c(Nc3ccc(I)cc3F)c(F)c2F)c1F` (racemic) [Compound B-5, 3,4-Difluoro-2-(2-fluoro-4-iodoanilino)-5-[[3-fluoro-2-(methylsulfamoylamino)pyridin-4-yl]methyl]-N-[(1R, 2R)-(+/-)-2-methylcyclopropyl]benzamide (racemate)] gave a microsomal CLint at 0.99 µM in data set [1] of 22 µL/min/mg. The IC50 came out at 7 nM in data set [2] (setting [7]); 93 nM in data set [3]; 6 nM in data set [4] (Table 3; read-out: BRAF IC50); 29 nM in data set [5] (setting [8]); 5 nM in data set [6] (setting [9]).

The compound `CNS(=O)(=O)Nc1nccc(Cc2cc(C(=O)NC3CC3(F)F)c(Nc3ccc(I)cc3F)c(F)c2F)c1F` (racemic) [Compound B-6, (+/-)-N-(2,2-Difluorocyclopropyl)-3,4-difluoro-2-(2-fluoro-4-iodoanilino)-5-[[3-fluoro-2-(methylsulfamoylamino)pyridin-4-yl]methyl]benzamide (racemate)] showed a microsomal CLint at 0.99 µM in data set [1] of 20 µL/min/mg. Moreover, the IC50 was 2 nM in data set [2] (setting [7]); 97 nM in data set [3]; 15 nM in data set [4] (Table 3; read-out: BRAF IC50); 16 nM in data set [5] (setting [8]); 1 nM in data set [6] (setting [9]).

Consider `CNS(=O)(=O)Nc1nccc(Cc2cc(C(N)=O)c(Nc3ccc(C4CC4)cc3F)c(F)c2F)c1F` [Compound A-1, 2-(4-cyclopropyl-2-fluoroanilino)-3,4-difluoro-5-[[3-fluoro-2-(methylsulfamoylamino)pyridin-4-yl]methyl]benzamide], for which the microsomal CLint at 0.99 µM in data set [1] came to 1 µL/min/mg. Also, the IC50 in data set [2] (Homo sapiens, A549, 96 h) was 26 nM; in data set [3] (Table 3, read-out: MEK1 IC50), 17 nM; in data set [4] (Table 3; read-out: BRAF IC50) it was 1 nM; in data set [5] (Homo sapiens, Calu-6, 96 h), 64 nM; in data set [6] (Homo sapiens, NCI-H2122, 96 h), 5 nM.

On to `NS(=O)(=O)Nc1nccc(Cc2cc(C(=O)NC3CC3)c(Nc3ccc(I)cc3F)c(F)c2F)c1F` [Compound A-3, N-Cyclopropyl-3,4-difluoro-2-(2-fluoro-4-iodoanilino)-5-[[3-fluoro-2-(sulfamoylamino)pyridin-4-yl]methyl]benzamide], for which the intrinsic metabolic clearance (microsomal CLint) at 0.99 µM in data set [1] worked out at 10 µL/min/mg. Moreover, the IC50 was determined as 25 nM in data set [2] (setting [7]); 31 nM in data set [3] (Table 3, read-out: MEK1 IC50); 5 nM in data set [4] (read-out: BRAF IC50; Table 3); 28 nM in data set [5] (setting [8]); 13 nM in data set [6] (setting [9]).

In data set [1], `CCNS(=O)(=O)Nc1nccc(Cc2cc(C(=O)NC3CC3)c(Nc3ccc(I)cc3F)c(F)c2F)c1F` [Compound A-4, N-cyclopropyl-5-[[2-(ethylsulfamoylamino)-3-fluoropyridin-4-yl]methyl]-3,4-difluoro-2-(2-fluoro-4-iodoanilino)benzamide] gave a microsomal CLint at 0.99 µM of 21 µL/min/mg. The IC50 in data set [2] (setting [7]) stood at 5 nM; in data set [3] (Table 3, read-out: MEK1 IC50), 17 nM; in data set [4] (read-out: BRAF IC50; Table 3), 2 nM; in data set [5] (setting [8]), 7 nM; in data set [6] (setting [9]) it was 1 nM.

`O=C(NC1CC1)c1cc(Cc2ccnc(NS(=O)(=O)NC3CC3)c2F)c(F)c(F)c1Nc1ccc(I)cc1F` [Compound A-5, N-Cyclopropyl-5-[[2-(cyclopropylsulfamoylamino)-3-fluoropyridin-4-yl]methyl]-3,4-difluoro-2-(2-fluoro-4-iodoanilino)benzamide] came in with a microsomal CLint at 0.99 µM in data set [1] of 36 µL/min/mg. Further, the IC50 in data set [2] (setting [7]) stood at 5 nM; in data set [3] (Table 3, read-out: MEK1 IC50), 10 nM; in data set [4] (read-out: BRAF IC50; Table 3), 5 nM; in data set [5] (setting [8]), 12 nM; in data set [6] (setting [9]), 1 nM.

As to `CCS(=O)(=O)Nc1nccc(Cc2cc(C(=O)NC3CC3)c(Nc3ccc(I)cc3F)c(F)c2F)c1F` [Compound A-39], the IC50 in data set [2] (setting [7]) was 30 nM; in data set [3] (Table 3, read-out: MEK1 IC50), 41 nM; in data set [4] (read-out: BRAF IC50; Table 3), 14 nM; in data set [5] (setting [8]), 79 nM; in data set [6] (setting [9]) it was 7 nM.

As for `COCC1(S(=O)(=O)Nc2cccc(Cc3cc(C(=O)NOC)c(Nc4ccc(I)cc4F)c(F)c3F)c2F)CC1` [Compound E-3], the IC50 in data set [2] (setting [10]) was found to be 4 nM; in data set [3] (Table 3, read-out: MEK1 IC50), 33 nM; in data set [4] (Table 3; read-out: BRAF IC50), 5 nM; in data set [5] (setting [10]) it was 7 nM; in data set [6] (setting [10]), 2 nM.

For `CS(=O)(=O)Nc1cccc(Cc2cc(C(N)=O)c(Nc3ccc(I)cc3F)c(F)c2F)c1F` [Compound E-13, 3,4-difluoro-2-(2-fluoro-4-iodoanilino)-5-[[2-fluoro-3-(methanesulfonamide)phenyl]methyl]benzamide], the IC50 in data set [2] (setting [10]) worked out at 30 nM; in data set [4] (read-out: BRAF IC50; Table 3), 1 nM; in data set [5] (setting [10]), 84 nM; in data set [6] (setting [10]), 6 nM.

Compound `COCCNS(=O)(=O)Nc1nccc(Cc2cc(C(=O)NC3CC3)c(Nc3ccc(I)cc3F)n(C)c2=O)c1F` [Compound J-7, N-Cyclopropyl-2-(2-fluoro-4-iodoanilino)-5-[[3-fluoro-2-(2-methoxyethylsulfamoylamino)pyridin-4-yl]methyl]-1-methyl-6-oxopyridine-3-car boxamide] had a microsomal CLint at 0.99 µM in data set [1] of 30 µL/min/mg. The IC50 in data set [3] (Table 3, read-out: MEK1 IC50) turned out to be 627 nM; in data set [4] (read-out: BRAF IC50; Table 3), 12 nM; in data set [5] (setting [8]) it was 380 nM; in data set [6] (setting [9]), 29 nM.

On to `CCS(=O)(=O)Nc1cccc(Cc2cc(C(=O)NOC(C)(C)C)c(Nc3ccc(I)cc3F)n(C)c2=O)c1F` [Compound K-9], for which the IC50 came to 17 nM in data set [2] (setting [10]); 23 nM in data set [3] (Table 3, read-out: MEK1 IC50); 8 nM in data set [4] (Table 3; read-out: BRAF IC50); 34 nM in data set [5] (setting [10]); 8 nM in data set [6] (setting [10]).

As for `CCS(=O)(=O)Nc1nccc(Cn2cc(C(=O)NC3CC3)c(Nc3ccc(I)cc3F)c(C)c2=O)c1F` [Compound P-4, N-Cyclopropyl-1-[[2-(ethylsulfonylamino)-3-fluoropyridin-4-yl]methyl]-4-(2-fluoro-4-iodoanilino)-5-methyl-6-oxopyridine-3-carboxamide], the microsomal CLint at 0.99 µM in data set [1] stood at 1 µL/min/mg. For the same compound, the IC50 in data set [3] (Table 3, read-out: MEK1 IC50) was 34 nM; in data set [4] (read-out: BRAF IC50; Table 3), 16 nM; in data set [5] (setting [8]), 45 nM; in data set [6] (setting [9]) it was 24 nM.

For `CNS(=O)(=O)Nc1nccc(Cn2cc(C(=O)NC3CC3)c(Nc3ccc(I)cc3F)c(C)c2=O)c1F` [Compound P-6, N-Cyclopropyl-4-(2-fluoro-4-iodoanilino)-1-[[3-fluoro-2-(methylsulfamoylamino)pyridin-4-yl]methyl]-5-methyl-6-oxopyridine-3-carboxamide], the microsomal CLint at 0.99 µM in data set [1] worked out at 4 µL/min/mg. Besides, the IC50 in data set [3] (Table 3, read-out: MEK1 IC50) stood at 13 nM; in data set [4] (read-out: BRAF IC50; Table 3), 9 nM; in data set [5] (setting [8]), 8 nM; in data set [6] (setting [9]) it was 4 nM.

`CNS(=O)(=O)Nc1nccc(Cn2cc(C(=O)NOC)c(Nc3ccc(I)cc3F)c(C)c2=O)c1F` [Compound P-7, 4-(2-Fluoro-4-iodoanilino)-1-[[3-fluoro-2-(methylsulfamoylamino)pyridin-4-yl]methyl]-N-methoxy-5-methyl-6-oxopyridine-3-carboxamide] had a microsomal CLint at 0.99 µM in data set [1] of 12 µL/min/mg. In addition, the IC50 in data set [3] (Table 3, read-out: MEK1 IC50) turned out to be 7 nM; in data set [4] (read-out: BRAF IC50; Table 3), 7 nM; in data set [5] (setting [8]), 72 nM; in data set [6] (setting [9]), 7 nM.

Regarding `NC(=O)c1c(Nc2ccc(I)cc2F)cncc1Oc1cccc(NS(=O)(=O)C2CC2)c1` [Ref-4, reference compound], the intrinsic metabolic clearance (microsomal CLint) at 0.99 µM in data set [1] is 32 µL/min/mg. Besides, the half-maximal inhibitory concentration (IC50) came to 2 nM in data set [2] (setting [7]); 11 nM in data set [3] (Table 3, read-out: MEK1 IC50); 18 nM in data set [5] (setting [8]); 2 nM in data set [6] (setting [9]).

Consider `CNS(=O)(=O)Nc1nccc(Cc2c(C)c3ccc(Oc4ncccn4)cc3oc2=O)c1F` [Ref-5, 3-[[3-Fluoro-2-(methylsulfamoylamino)pyridin-4-yl]methyl]-4-methyl-7-pyrimidin-2-yloxychromen-2-one, reference compound], for which, in data set [1], the microsomal CLint at 0.99 µM is less than 1 µL/min/mg. The IC50 is 113 nM in data set [2] (setting [7]), 11 nM in data set [4] (read-out: BRAF IC50; Table 3), 418 nM in data set [5] (setting [8]) and 27 nM in data set [6] (setting [9]).
